Key:
PWS-IC = assay: Bisulfite genomic sequencing of PWS-IC, human PWS cells; type: cell-based
Description: Genomic DNA was isolated from human PWS fibroblasts or mouse tissues. DNA (1 μg) was then treated by bisulfite using the Epi-Tect bisulfite kit (Qiagen), and 125 ng input DNA was used per PCR amplification. PCR products were sub-cloned into pGEM-T easy vector (Promega) and an average of 15 clones were sequenced. DNA sequencing results were analyzed using BISMA web-based analysis platform with a setting for individual clones with <95% bisulfite conversion and <90% sequence identity to be excluded in the analysis.

human PWS fibroblasts = assay: Chromatin immunoprecipitation (ChIP-qPCR) of H3K9me2/H3K9me3; type: cell-based; settings: in words
Description: Histone methylations on the SNRPN locus in human fibroblasts were analyzed by chromatin immunoprecipitation assay (ChIP) using the protocol as previously reported (see Fulmer-Smentek et al., Human molecular genetics 10, 645-652 (2001)). ChIP assay was performed using ChIP-IT Express magnetic kit (Active Motif) according to the manufacturer's instructions with modification for the fixation and reverse-crosslinking steps. Briefly, native chromatin was prepared without fixation and enzymatic digestions to average 150-500 bp sized chromatin. 20 μg of chromatin was added to the specific antibodies (2 μg) or species control isotype antibodies for each immunoprecipitation reaction. The antibody-chromatin complexes were bound to protein G magnetic beads for recovering chromatin immunoprecipitates. RNase- and proteinase K-treated DNA was purified using PCR purification columns (Promega). DNA recovery was quantified by real time PCR performed on the LightCycler480 instrument (Roche) using SsoAdvanced Universal SYBR green Supermix (Biorad). Antibodies were anti-rabbit acetylated H3 (Millipore 06-599), anti-mouse monoclonal Histone H3 dimethyl K9 (Abcam 1220) and Histone H3 trimethyl K9 (Millipore, 07-442) antibodies. qPCR reactions were performed with the following cycling parameters: at 95° C./5 min followed by 40 cycles of 95° C./30 sec, 60° C./60 sec. Data was normalized to the total input.

maternal Snrpn-EGFP MEFs = assay: High content screening / concentration response of Snrpn-EGFP unsilencing; type: cell-based, mouse; settings: mS-EGFP/p+ MEFs
Description: High content screenings of small molecules were performed as described in Huang, et al. Nature 481, 185-189 (2012). HCS comprises a 384-well high-content screen using primary mouse embryonic fibroblasts (MEFs) from m^S-EGFP/p^+, and searched for drug-like molecules that could unsilence the maternal S-EFGP allele. […] To perform the screen, primary MEFs were isolated from E12.5-14.5 embryos of m^S-EGFP/p^+ and cultured for 7 days in Dulbecco's modified Eagle's media supplemented with 10% fetal bovine serum, 100 Units/mL penicillin and 100 μg/mL streptomycin, at 37° C. and 5% CO2. One day before treatment with small molecules, 5,000 cells per well were plated onto 384-well plates. The cells were then treated with compounds (10 μM for 72 hours) from multiple small molecule libraries (FIG. 1f and FIG. 2). In total, 9,157 small molecules were screened in quadruplicate, normalizing values to vehicle-treatment (0.2% DMSO) (Table 1). The unsilencing of Snrpn-EGFP was determined three days after drug treatment. The immunofluorescence-processed fibroblasts were imaged for Hoechst and Alexa Fluor 488 fluorescence using a BD Pathway 855 high content imaging microscope. Antibody-enhanced Snrpn-EGPF fluorescence intensity was determined in drug-treated cells individually and normalized to cells treated with vehicle control. In order to identify potentially active compounds, an arbitrary cutoff of 125% was used where 100% indicates basal fluorescence in the vehicle-treated MEFs. Analysis was performed using Cell Profiler with custom macro and algorithms. Potential active drugs were defined as the increase in drug-mediated EGFP fluorescence consistently observed across quadruplicate wells and minimal or no cytotoxicity measured by Hoechst-stained nuclear structure (and the changes in total number of cells). After initial validation of all potential active drugs (e.g., to determine whether active compounds show inherent fluorescence, the wild-type fibroblasts were also treated), only effective hit compounds further validated in dose-response tests to determine relative efficacy (Emax) and potency (EC50). The dose-response results were analyzed by using Graphpad Prism (Graphpad Software). The calculated EC50 values (potencies) and estimated Emax (efficacy, Y-value top plateau) enabled comparative analyses of the relative potency and efficacy of the identified compounds.
Three days after drug treatment, the cells were fixed at 4% paraformaldehyde at room temperature for 10 min, followed by rinsing with 1× PBS. The cells were permeabilized with 0.5% Triton X-100 in 1× PBS at room temperature for 10 min, followed by blocking with 5% normal goat serum in 0.1% Triton X-100 in 1× PBS at room temperature for 30 minutes. Primary rabbit anti-GFP antibody (1:1000, Novus Biologicals cat. no. NB100-1770) was incubated at 4° C. overnight. The next day, the cells were rinsed with 1× PBS and incubated with goat anti-rabbit Alexa Fluor 488 (Invitrogen cat. no. A-11008) and Hoechst at room temperature. One hour after incubation, the cells were rinsed with 1× PBS and imaged for Hoechst and Alexa Fluor 488 fluorescence using a BD Pathway 855 high content imaging microscope.
It is not feasible to design a screen for noncoding RNA. Alternatively, SNRPN/Snprn is paternally expressed but maternally silenced in all human and mouse tissues. The allele-specific expression of human SNRPN is regulated by the PWS-IC, which also controls the expression of host transcripts for SnoRNAs, including the SNORD116 cluster between SNRPN and UBE3A. see Le Meur, E. et al., Dev. Biol. 286, 587-600 (2005). Thus, the Snrpn-EGFP fusion protein (hereafter S-EGFP) was used as a marker for high content screening (HCS). It was determined that small molecules that can unsilence S-EGFP would also be effective in reactivating the host transcript of SNORD116. […]

Row | SMILES | DNA methylation of the PWS-IC (PWS-IC) | level of H3K9me2 (and H3K9me3) in the PWS-IC (human PWS fibroblasts) | activation of S-EGFP (maternal Snrpn-EGFP MEFs)
1 | Nc1ncn([C@H]2C[C@H](O)[C@@H](CO)O2)c(=O)n1 [5-Aza-dC, 5-aza deoxycytidine, reference compound] | significantly decreased | reduced | 
2 | COc1cc2nc(N3CCCN(C)CC3)nc(NC3CCN(Cc4ccccc4)CC3)c2cc1OC [BIX01294, reference compound] |  |  | did not have a substantial effect
3 | C[S+](CC[C@H](N)C(=O)O)C[C@H]1O[C@@H](n2cnc3c(N)ncnc32)[C@H](O)[C@@H]1O (some centres unmarked) [S-adenosyl-methionine, reference compound] |  |  | did not have an effect
4 | Nc1ccccc1NC(=O)c1ccc(CNC(=O)OCc2cccnc2)cc1 [entinostat, reference compound] |  |  | did not have an effect
5 | CC(/C=C/C(=O)NO)=C\[C@@H](C)C(=O)c1ccc(N(C)C)cc1 [trichostatin A, reference compound] |  |  | did not have an effect
6 | CCCC(CCC)C(=O)O [valproic acid, reference compound] |  |  | did not have an effect
7 | O=C(CCCCCCC(=O)Nc1ccccc1)NO [vorinostat, suberoylanilide hydroxamic acid, reference compound] |  |  | did not have an effect
